Measurements as given in patent US11117921B2, “Methods for synthesizing nucleotide analogues with disulfide linkers” (IsoPlexis Corporation, priority 2015, dated 2021).

Test: Cleavage experiments with thiol cleavage agents, RP-HPLC (FIG. 77, 78A-B)
Details: RP-HPLC after 10 minutes of incubation with cleave reagent
Excerpt: In addition to these a variety of suitable cleaving agents can be used such as Bis(2-mercaptoethyl)sulfone (BMS) and N,N′-dimethyl-N,N-bis(mercaptoacetyl)hydrazine (DMH) (Singh et al., Bioorg. Chem., 22, 109-115 (1994). Reactions can be further catalyzed by inclusion of selenols (Singh et al. Anal Biochem. 1995 Nov. 20; 232(1):86-91 [18]). Borohydrides, such as sodium borohydrides can also be used for this purpose (Stahl et al., Anal. Chem., 1957, 29 (1), pp 154-155 [19]) as well as ascorbic acid (Nardai et al., J. Biol. Chem. 276, 8825-8828 (2001)). In addition, enzymatic methods for cleavage of disulfide bonds are also well known such as disulfide and thioreductase and can be used with compounds of the present invention (Holmgren et al., Methods in Enzymology, Volume 252, 1995, Pages 199-208 [21]).

Row | Structure (SMILES) | composition of cleavage reaction mixture (extent of cleavage)
1 | OC(=S)CCC(O)=S [dithiosuccinic acid] | selective cleavage of 3′-O-protective group
2 | N[C@@H](CS)C(=O)O [L-cysteine] | full cleavage of both linker and the 3′-protective groups
3 | O[C@H](CS)[C@H](O)CS (racemic) [DTT, dithiothreitol] | full cleavage of both linker and the 3′-protective groups
4 | NCCS [cysteamine] | full cleavage of both linker and the 3′-protective groups
